Test system: P12-Ichikawa
Assay: cell viability relative to DMSO control; higher = less cytotoxic
Conditions: 48 h
Procedure, shortened: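 Three leukemia lines were tested: NOMO1 and SEM at 500 cells/well and P12-Ichikawa at 1000 cells/well. Each was adapted for at least four passages in each medium and seeded in 5 μl in 1536-well plates, and library compounds in DMSO were pin-dosed from 47 μM to 0.79 nM in 11 threefold steps. After 48 h at 37°C, CellTiter-Glo One luminescence was read. Viability is a percentage relative to DMSO wells on each plate, with cell-free wells as background.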

[1] = HPLM + 10% dialyzed FBS, 0.000781 µM
[2] = HPLM + 10% dialyzed FBS, 0.00234 µM
[3] = HPLM + 10% dialyzed FBS, 0.00702 µM
[4] = HPLM + 10% dialyzed FBS, 0.0211 µM
[5] = HPLM + 10% dialyzed FBS, 0.0632 µM
[6] = HPLM + 10% dialyzed FBS, 0.19 µM
[7] = HPLM + 10% dialyzed FBS, 0.569 µM
[8] = HPLM + 10% dialyzed FBS, 1.71 µM
[9] = HPLM + 10% dialyzed FBS, 5.12 µM
[10] = HPLM + 10% dialyzed FBS, 15.4 µM
[11] = HPLM + 10% dialyzed FBS, 46.1 µM
[12] = RPMI 5 mM glucose + 10% FBS, 0.000781 µM
[13] = RPMI 5 mM glucose + 10% FBS, 0.00234 µM
[14] = RPMI 5 mM glucose + 10% FBS, 0.00702 µM
[15] = RPMI 5 mM glucose + 10% FBS, 0.0211 µM
[16] = RPMI 5 mM glucose + 10% FBS, 0.0632 µM
[17] = RPMI 5 mM glucose + 10% FBS, 0.19 µM
[18] = RPMI 5 mM glucose + 10% FBS, 0.569 µM
[19] = RPMI 5 mM glucose + 10% FBS, 1.71 µM
[20] = RPMI 5 mM glucose + 10% FBS, 5.12 µM
[21] = RPMI 5 mM glucose + 10% FBS, 15.4 µM
[22] = RPMI 5 mM glucose + 10% FBS, 46.1 µM
[23] = RPMI 5 mM glucose + 10% dialyzed FBS, 0.000781 µM
[24] = RPMI 5 mM glucose + 10% dialyzed FBS, 0.00234 µM
[25] = RPMI 5 mM glucose + 10% dialyzed FBS, 0.00702 µM
[26] = RPMI 5 mM glucose + 10% dialyzed FBS, 0.0211 µM
[27] = RPMI 5 mM glucose + 10% dialyzed FBS, 0.0632 µM
[28] = RPMI 5 mM glucose + 10% dialyzed FBS, 0.19 µM
[29] = RPMI 5 mM glucose + 10% dialyzed FBS, 0.569 µM
[30] = RPMI 5 mM glucose + 10% dialyzed FBS, 1.71 µM
[31] = RPMI 5 mM glucose + 10% dialyzed FBS, 5.12 µM
[32] = RPMI 5 mM glucose + 10% dialyzed FBS, 15.4 µM
[33] = RPMI 5 mM glucose + 10% dialyzed FBS, 46.1 µM

SMILES | cell viability [1] | cell viability [2] | cell viability [3] | cell viability [4] | cell viability [5] | cell viability [6] | cell viability [7] | cell viability [8] | cell viability [9] | cell viability [10] | cell viability [11] | cell viability [12] | cell viability [13] | cell viability [14] | cell viability [15] | cell viability [16] | cell viability [17] | cell viability [18] | cell viability [19] | cell viability [20] | cell viability [21] | cell viability [22] | cell viability [23] | cell viability [24] | cell viability [25] | cell viability [26] | cell viability [27] | cell viability [28] | cell viability [29] | cell viability [30] | cell viability [31] | cell viability [32] | cell viability [33]
COc1cc2c(Nc3ccc(Cl)c(Cl)c3F)ncnc2cc1OC[C@@H]1C[C@@H]2CN(C)C[C@@H]2C1 | 95.2% | 102% | 108% | 112% | 100% | 110% | 104% | 104% | 108% | 81.8% | 5.15% | 95.3% | 102% | 98% | 105% | 109% | 112% | 114% | 110% | 119% | 106% | 5.73% | 108% | 114% | 108% | 113% | 117% | 117% | 115% | 111% | 113% | 89.6% | 4.74%
CC(C)Cn1cnc2c(N)nc3ccccc3c21 | 124% | 113% | 107% | 116% | 115% | 112% | 113% | 106% | 87.6% | 75.1% | 89.9% | 113% | 123% | 116% | 119% | 111% | 115% | 110% | 107% | 106% | 106% | 85.1% | 111% | 111% | 109% | 115% | 115% | 112% | 105% | 107% | 104% | 102% | 81%
N#Cc1ccnc(N2C(=O)CC[C@H]2C(=O)N(c2cncc(F)c2)[C@H](C(=O)NC2CC(F)(F)C2)c2ccccc2Cl)c1 | 91.1% | 95.2% | 93.7% | 95.4% | 94.9% | 97% | 74.8% | 48.3% | 10.1% | 10.1% | 15.5% | 88% | 90.2% | 95.4% | 93.1% | 90.5% | 90.5% | 80.5% | 71.5% | 25.4% | 16.2% | 7.62% | 95.5% | 89.9% | 88.5% | 96.7% | 97.5% | 95.6% | 85% | 83.7% | 35.6% | 26.2% | 18.8%
O=[S+]([O-])(NCCNC/C=C/c1ccc(Br)cc1)c1cccc2cnccc12 | 108% | 110% | 102% | 105% | 107% | 107% | 106% | 100% | 97% | 95.3% | 95.8% | 99.1% | 108% | 96.4% | 89% | 97.6% | 108% | 102% | 99.2% | 96.6% | 81.5% | 72% | 95.9% | 95.6% | 103% | 96.2% | 99.6% | 101% | 102% | 103% | 95.8% | 77% | 77.8%
COc1cc2ncnc(Nc3cccc(Cl)c3)c2cc1OC | 112% | 107% | 97.3% | 99.6% | 89.2% | 73% | 68.3% | 44.8% | 46.1% | 45.4% | 3.51% | 97.7% | 99.1% | 98.5% | 107% | 87.9% | 66.8% | 69.1% | 32.7% | 25.1% | 22.9% | 19% | 111% | 102% | 109% | 106% | 90.8% | 72.1% | 69.4% | 32% | 25.1% | 23% | 15.7%
Cc1nc(N)ncc1-c1nc(N2CCOCC2)c2sc(C(C)(C)O)cc2n1 | 125% | 122% | 119% | 113% | 83% | 10.9% | 7.79% | 5.43% | 4.61% | 4.97% | 4.1% | 116% | 122% | 114% | 120% | 116% | 121% | 18.5% | 7.92% | 6.16% | 5.72% | 5.39% | 124% | 118% | 125% | 120% | 122% | 118% | 13.2% | 8.68% | 7.11% | 6.92% | 5.85%
COC(=O)Nc1nc2ccc([S+]([O-])c3ccccc3)cc2[nH]1 (configuration not stated) | 109% | 119% | 111% | 114% | 111% | 116% | 122% | 119% | 95.5% | 55.5% | 86% | 100% | 115% | 103% | 119% | 118% | 120% | 115% | 135% | 110% | 74.4% | 92.4% | 118% | 120% | 117% | 118% | 124% | 118% | 128% | 122% | 117% | 95% | 97.4%
OCCN(CCO)c1nc(N2CCCCC2)c2nc(N(CCO)CCO)nc(N3CCCCC3)c2n1 | 113% | 110% | 118% | 114% | 114% | 113% | 109% | 107% | 107% | 98% | 75% | 108% | 108% | 113% | 111% | 119% | 113% | 110% | 106% | 109% | 109% | 68.2% | 113% | 105% | 111% | 106% | 117% | 106% | 105% | 101% | 103% | 101% | 58.4%
O=C(O)Cc1cccc(OCCCN(Cc2cccc(C(F)(F)F)c2Cl)CC(c2ccccc2)c2ccccc2)c1 | 117% | 115% | 116% | 121% | 119% | 115% | 116% | 108% | 108% | 102% | 108% |  |  |  |  |  |  |  |  |  |  |  | 119% | 119% | 119% | 124% | 124% | 122% | 118% | 101% | 108% | 98.8% | 103%
CS[C@H]1SC[C@@H]2C(=O)N(C)[C@H](C(C)C)C(=O)OC[C@H](NC(=O)c3cnc4ccccc4n3)C(=O)N[C@H](C)C(=O)N(C)[C@H]1C(=O)N(C)[C@H](C(C)C)C(=O)OC[C@H](NC(=O)c1cnc3ccccc3n1)C(=O)N[C@H](C)C(=O)N2C | 93.5% | 97.9% | 97.7% | 59% | 6.91% | 9.39% | 11.9% | 11.9% | 9.92% | 9.92% | 13.2% | 88% | 98.9% | 74.9% | 44.9% | 6.52% | 7.51% | 8.83% | 9.76% | 7.33% | 7.34% | 6.52% | 88.5% | 91.2% | 68.6% | 29.6% | 6.86% | 8.69% | 9.15% | 9.6% | 8.79% | 11.4% | 11.8%
COC(=O)C/1=C(C)/N/C(=C(\C1C2=CC(=CC=C2)[N+]([O-])=O)C(=O)OCCCN3CCC(CC3)(C4=CC=CC=C4)C5=CC=CC=C5)C (configuration not stated) | 109% | 101% | 104% | 101% | 106% | 101% | 96.1% | 107% | 97.3% | 92.6% | 95% | 107% | 103% | 107% | 81.4% | 95.7% | 95.3% | 98.4% | 89.6% | 89.6% | 92.4% | 93% | 103% | 102% | 99.3% | 88.3% | 98.8% | 95% | 91.4% | 94.9% | 94% | 94.4% | 94.6%
COc1ccc2[nH]cc(CCNC(C)=O)c2c1 |  |  |  |  |  |  |  |  |  |  |  | 125% | 125% | 112% | 121% | 122% | 123% | 112% | 111% | 109% | 108% | 112% |  |  |  |  |  |  |  |  |  |  | 
CCOC(=O)N[C@@H]1CC[C@@H]2[C@@H](C1)C[C@H]1C(=O)O[C@H](C)[C@H]1[C@H]2/C=C/c1ccc(-c2cccc(F)c2)cn1 | 113% | 114% | 115% | 114% | 114% | 117% | 113% | 120% | 120% | 115% | 98.5% |  |  |  |  |  |  |  |  |  |  |  | 114% | 116% | 124% | 122% | 123% | 120% | 123% | 122% | 120% | 119% | 68.4%
CCCCCN(CCC12CC3CC(CC(C3)C1)C2)C(=O)NCCCc1ccncc1 | 113% | 112% | 110% | 114% | 115% | 104% | 109% | 108% | 104% | 97.1% | 97.8% | 101% | 109% | 112% | 107% | 107% | 105% | 111% | 106% | 109% | 92.7% | 99.1% | 115% | 110% | 109% | 118% | 114% | 114% | 109% | 113% | 105% | 101% | 98.9%
NNc1nncc2ccccc12 | 112% | 121% | 127% | 122% | 126% | 131% | 121% | 134% | 129% | 124% | 130% |  |  |  |  |  |  |  |  |  |  |  |  |  |  |  |  |  |  |  |  |  | 
CC[C@H]1CN2CCc3cc(OC)c(OC)cc3[C@@H]2C[C@@H]1C[C@H]1NCCc2cc(OC)c(OC)cc21 | 111% | 116% | 108% | 103% | 92.5% | 77.1% | 39.7% | 25.7% | 28.8% | 21.1% | 16.1% | 96.8% | 107% | 104% | 102% | 93.3% | 69.4% | 28.9% | 16.6% | 14.8% | 13.4% | 11.1% | 103% | 113% | 109% | 108% | 103% | 80.3% | 56.5% | 29.6% | 19.4% | 14.1% | 13.6%
